Patent publication US9237744B2, “Preservative solution for cells, tissues and organs containing rare sugar and preservative method thereof” (NATIONAL UNIVERSITY CORPORATION KAGAWA UNIVERSITY, priority 2004, dated 2016)

Key:
[1] = system: OVCAR-3, HaCaT and HDF cells; test: Cell survival rate with D-allose combined with DMSO at low concentration (Example 2); assay type: cell-based, human; details: 1 or 2% of DMSO with addition of D-allose (FIG. 9)
Experimental: 1. Cells used: Hela (human cervical cancer), OVCAR-3 (human ovarian cancer), HaCaT (human skin keratinocyte), HFB (human fibroblast) and NIH3T3 (mouse fibroblast). Saccharides D-allose and the like were added to culture medium, Cell Banker (commercially available preservative solution) and DMSO at concentrations of 0.2, 0.4, 0.6, 0.8 and 1M. Monosaccharides such as D-glucose, D-fructose, D-mannose and D-galactose which are present in nature in large quantities and D-allose, D-altrose, D-psicose, L-psicose, D-sorbose, L-sorbose, D-tagatose, L-tagatose and L-fructose as rare sugars were used. Further, trehalose as disaccharide was used. The cells frozen with D-allose were freeze-preserved at −80° C. and in liquid nitrogen for 24 hours, 1 week and 4 weeks. 1) Survival rate of cells: The cells were thawed, and the survival rate was estimated by a trypan blue dying method. 6) The effect of cell preservation under sub-optimal conditions by reducing the concentration of DMSO to 1, 2 or 3% was comparatively examined. OVCAR-3, HaCaT and HDF cells were used as cells. Regarding the preservation effect with DMSO, it was confirmed that the survival rate was approximately 70% or more with the use of 1 or 2% of DMSO by addition of D-allose (FIG. 9).

[2] = system: NIH3T3 (mouse fibroblast); test: Cell growth after thawing of freeze-preserved cells, MTT assay (Example 1); assay type: cell-based; details: same experiment as with HFB
Experimental: (§1) 1. Cells used: Hela (human cervical cancer), OVCAR-3 (human ovarian cancer), HuH-7 (human liver cancer), HaCaT (human skin keratinocyte), HFB (human fibroblast) and NIH3T3 (mouse fibroblast). Saccharides D-allose and the like were added to culture medium, Cell Banker (commercially available preservative solution) and DMSO at concentrations of 25 mM and 50 mM. Monosaccharides such as D-glucose, D-fructose, D-mannose and D-galactose which are present in nature in large quantities and D-allose, D-psicose, D-altrose, allitol, D-talitol and L-sorbose as rare sugars were used. Further, trehalose as disaccharide was used. The cells were preserved for 24 hours by being frozen at −80° C. 2) Cell growth: One day later, the cells were thawed, and 0.25˜2×10^4 cells/well were spread on 96-well plate with 0.1 mL medium. After a prescribed period of time, the cell growth was measured by MTT assay.

HFB (human fibroblast) = test: as above; assay type: cell-based; details: culture medium plus sugar, in comparison with other cases (FIG. 2)
Experimental: as §1

[3] = system: Hela, OVCAR-3, HaCaT, HFB and NIH3T3 cells; test: Cell growth after thawing of cells freeze-preserved at optimum concentrations, MTT assay (Example 2); assay type: cell-based, human, mouse
Experimental: 1. Cells used: Hela (human cervical cancer), OVCAR-3 (human ovarian cancer), HaCaT (human skin keratinocyte), HFB (human fibroblast) and NIH3T3 (mouse fibroblast). Saccharides D-allose and the like were added to culture medium, Cell Banker (commercially available preservative solution) and DMSO at concentrations of 0.2, 0.4, 0.6, 0.8 and 1M. Monosaccharides such as D-glucose, D-fructose, D-mannose and D-galactose which are present in nature in large quantities and D-allose, D-altrose, D-psicose, L-psicose, D-sorbose, L-sorbose, D-tagatose, L-tagatose and L-fructose as rare sugars were used. Further, trehalose as disaccharide was used. The cells frozen with D-allose were freeze-preserved at −80° C. and in liquid nitrogen for 24 hours, 1 week and 4 weeks. 2) Cell growth: The cells were freeze-preserved with D-allose and trehalose at optimum concentrations for 24 hours, thawed, and spread on a 96-well plate such that the concentration was 0.5-1×10^4 cells/well/0.1 ml. After a prescribed period of time, the cell growth was measured by MTT assay.

ICAM-1 mRNA = test: Kidney preservation in UW solution at 4° C., ICAM-1 mRNA by northern blot; parameters: species or system rat; details: D-allose 5 mg/ml in UW solution, clearly observed after 12 hours and 24 hours (FIG. 10)
Experimental: (§2) Object: male rats, 200 g to 280 g Preparations of experiment: A rat is fasted 12 hours before the experiment. After the rat is anesthetized by intraperitoneal administration of nenbutal, the stomach is shaved with an electric razor, cleaned with ether, and cut open. The abdominal aorta upper the renal artery is clamped. The UW solution is adapted to be perfused from the abdominal aorta under the renal artery. Grouping: Control group: UW solution only, D-allose group: D-allose is added to the UW solution at a concentration of 5 mg/ml. Experimental method: In the control group and the D-allose group, the kidney is withdrawn after perfusion of the UW solution in each group, put in the UW solution of each of the control group and the D-allose group, and preserved at 4° C. in pre or for 12, 24, 48 or 72 hours. Estimation: Expression of detrimental factor ICAM-1 and regeneration factor EGF in mRNA was examined by northern blot.

EGF mRNA = test: Kidney preservation in UW solution at 4° C., EGF mRNA by northern blot; parameters: species or system rat; details: D-allose 5 mg/ml in UW solution, in 48 hours and 78 hours (FIG. 11)
Experimental: as §2, with “and preserved at 4° C. in pre or for 12, 24, 48 or 72 hours.” left out

## O=C[C@H](O)[C@H](O)[C@H](O)[C@H](O)CO [D-allose]
[1]
  survival rate: ≥ 70%
[2]
  growth rate of cells after thawing: the same results were obtained
HFB (human fibroblast)
  growth rate of cells after thawing: growth rate was high
[3]; freeze-preserved 24 hours at optimum concentration, versus other cases (FIG. 8)
  growth rate of cells after thawing: higher in growth rate
[3]; versus commercially available Cell Banker cell preservative solution
  functional impairment of frozen cells: less impaired functionally
ICAM-1 mRNA
  expression of ICAM-1 mRNA during kidney preservation: reduced
EGF mRNA
  expression of EGF mRNA during kidney preservation: still maintained
